Reference: US20090280193A1, “Enerceutical mediated activation of the Alternative Cellular Energy (ACE) pathway in the therapy of diseases” (priority 2008, published 2009)

Experiment: UV light induced fluorescence when mixed with freshly prepared neutral red
Assay type: physicochemical
From the text: This concept is fully consistent with the finding that various mineral and organic substances can be formulated that similarly show fluorescence when mixed with neutral red and illuminated with UV light. Not all cellular energy delivering products show this reaction but may yet presumably still be are able to absorb energies; and further that such absorption may be facilitated using various types of dyes or other chemicals. The advantage of a current formulation that has been devised over the last several years is that it clearly fluoresces with neutral red and that a distant action can be easily observed in a distantly held neutral red indication solution. This action includes otherwise unexplained movements of fine particles within the neutral red solution and more strikingly the induced crystallization that occurs in the neutral red solution. […] The UV inducible fluorescence, or other form of energy emission, within the plastic bags will typically evoke some discernable fluorescence within at least some skin areas in most of the treated and symptomatic patients, consistent with an overall systemic activation of the body's ACE pathway. […] The liquid-in-a-bag format also allows for the addition of other materials that can further enhance the activation and/or fluorescence of the formulations being studied. […]

CCN(CC)CC(=O)Nc1c(C)cccc1C [Lidocaine]
fluorescence with neutral red: will not fluoresce
